Experimental data reported in patent US4525458A, “Method for the production of sphingomyelinase” (priority 1981, dated 1985).

tested on: sphingomyelinase; assay: Effect of surfactant on enzymatic activity; assay type: biochemical, Streptomyces sp. A 9107; settings: additive 0.1%; no addition = 100
Description: (§1) After preincubating 0.45 ml of the following reaction mixture at 37° C., 50 μl of an enzyme solution is added to start the reaction. After just 10 minutes, 0.1 ml of 0.1M EDTA is added to stop the reaction.
(§2) The formed phosphorylcholine is led to a color development system through a H2 O2 by using the following reaction mixture, and absorbance at 500 nm is measured.
(§3) The indication of enzymatic activity is calculated from the following equation with activity to produce 1 μmole of phosphorylcholine for 1 minute as one unit:
(§4) wherein ΔA500 nm means a difference in absorbance at 500 nm between at the start of reaction and 10 minutes after the reaction.

Row | Molecule | Relative activity (%)
1 | Triton X-100 | 358%
2 | CCCCCCCCCCCCOS(=O)(=O)[O-].[Na+] [Sodium laurylsulfate] | 13%
3 | Sodium laurylbenzenesulfonate | 8%
4 | C[C@H](CCC(=O)O)[C@H]1CC[C@H]2[C@@H]3CC[C@@H]4C[C@H](O)CC[C@]4(C)[C@H]3C[C@H](O)[C@]12C [Sodium deoxycholate] | 16%

tested on: sphingomyelinase; assay: Substrate specificity; assay type: biochemical, Streptomyces sp. A 9107; settings: as substrate; sphingomyelin = 100
Description: as §1, §2, §3, §4
(10) SUBSTRATE SPECIFICITY

Row | Molecule | Relative activity (%)
5 | Lecithin | 0%
6 | Sphingomyelin | 100%
7 | Phosphatidyl inositol | 0%
8 | Phosphatidyl ethanolamine | 0%
9 | Lysolecithin | 0%
10 | Phosphatidyl serine | 0%

tested on: not listed separately; assay: Thermal stability (residual activity); assay type: physicochemical; settings: 23 u/ml in 100 mM Tris-HCl buffer (pH 7.0), heated for 10 minutes
Description: An enzyme solution is prepared so that its concentration in 100 mM Tris-HCl buffer (pH 7.0) is 23 u/ml, and measured for the residual activity after heated for 10 minutes at every temperatures shown on the abscissa in FIG. 3. The liquor is kept stable until the treatment at 40° C. for 10 minutes.

Row | Molecule | Temperature until which kept stable
11 | sphingomyelinase [enzyme] | ≤ 40 °C

tested on: not listed separately; assay: Measurement of enzymatic activity (specific activity of preparations); assay type: biochemical; settings: 1 unit = 1 μmole phosphorylcholine per minute
Description: as §1, §2, §3, §4

Row | Molecule | Specific activity
12 | sphingomyelinase [enzyme] | 1,050 U/mg

tested on: sphingomyelinase; assay: Effect of metal ions on enzymatic activity; assay type: biochemical, Streptomyces sp. A 9107; settings: additive 1 mM; no addition = 100
Description: as §1, §2, §3, §4

Row | Molecule | Relative activity (%)
13 | [Cl][Cu][Cl] [CuCl2] | 19%
14 | [Ca+2].[Cl-].[Cl-] [CaCl2] | 48%
15 | [Ba+2].[Cl-].[Cl-] [BaCl2] | 89%
16 | [Cl-].[Cl-].[Mg+2] [MgCl2] | 232%
17 | [Cl][Mn][Cl] [MnCl2] | 236%
18 | [Cl-].[Cl-].[Co+2] [CoCl2] | 35%
19 | [Cl-].[Cl-].[Zn+2] [ZnCl2] | 3%
20 | [Cl][Ni][Cl] [NiCl2] | 12%

same assay, conditions: additive 100 mM; no addition = 100

Row | Molecule | Relative activity (%)
21 | [Cl-].[Na+] [NaCl] | 73%
22 | Cl.N [NH4 Cl] | 79%
23 | [Cl-].[K+] [KCl] | 90%

tested on: not listed separately; assay: Isoelectric point by electrophoretic method using ampholite; assay type: physicochemical; settings: not given
Description: It is determined by the electrophoretic method using ampholite, a carrier. The pH obtained is 8.6.

Row | Molecule | Isoelectric point
24 | sphingomyelinase [enzyme] | 8.6 pH
